According to the NIST ThermoML archive (doi:10.1021/acs.jced.5b00582):
± gives the expanded uncertainty stated by the source.

Assays:
[1] = Liquid; for mass density: 298.15 K, 101.33 kPa, Pycnometric method; for vapor or sublimation pressure: Ebulliometric method (Recirculating still)
[2] = refractive index (Na D-line) (dimensionless); conditions: 298.15 K; 101.33 kPa; Liquid; Standard Abbe refractometry

CCC(C)=O [butanone]
mass density [1]: 799.7 ± 0.3 kg/m3
vapor or sublimation pressure ([1]; 352.76 K): 101.3 ± 0.86 kPa
refractive index [2]: 1.3761 ± 0.0004

COCCOC [1,2-dimethoxyethane]
mass density [1]: 860.4 ± 0.3 kg/m3
vapor or sublimation pressure ([1]; 357.71 K): 101.3 ± 0.86 kPa
refractive index [2]: 1.378 ± 0.0004

COCCO [2-methoxyethan-1-ol]
mass density [1]: 960.1 ± 0.3 kg/m3
vapor or sublimation pressure ([1]; 397.48 K): 101.3 ± 0.86 kPa
refractive index [2]: 1.4002 ± 0.0004

CCC(C)OC(C)=O (configuration not stated) [1-methylpropyl ethanoate]
mass density [1]: 863.8 ± 0.3 kg/m3
vapor or sublimation pressure ([1]; 385.12 K): 101.3 ± 0.86 kPa
refractive index [2]: 1.3872 ± 0.0004
